# Data published in patent US6333338A, “Bispiperidines as antithrombotic agents” (Laboratoire L. Lafon, priority 1998, dated 2001).
# Where a name gives a salt, the structure may show the parent alone. Read-outs that look alike come from different tables or passages of the source.
# Experiments:
# [1] = system: guinea pig platelets; assay: In vitro inhibition of collagen-induced platelet aggregation, guinea pig platelets (PRP); format: cell-based, guinea pig (male Dunkin-Hartley); settings: Cavia porcellus, Platelet, 0.05 h, collagen 1 μg/ml, 3 minutes of contact at 37° C.
# Description: (§1) A study of the inhibitory activity of the compounds of formula I on platelet aggregation was carried out in vitro, i.e. by direct contact of solutions of variable concentrations of the compounds with platelets freshly separated from a sample of total blood, taken under standardized conditions, from laboratory animals (guinea pigs) and from healthy human subjects who have not received any substances or drugs that might interfere with blood clotting. The anti-platelet-aggregating activity was also studied ex vivo/vitro, i.e. after administration of the substances claimed to guinea pigs to measure the intensity and duration of the anti-aggregating action induced by the fraction of the test product absorbed and circulating in the blood.
# Blood is taken by intracardiac puncture from male Dunkin-Hartley guinea pigs (weighing about 330 g), at a rate of 4.5 ml per 0.5 ml of trisodium citrate (concentration of the aqueous solution: 1.55%) in order to prevent all trace of clotting. The platelet-rich plasma (PRP) is obtained by centrifuging the tubes of total blood for 15 minutes at 150 g.
# The PRPs are collected as "pools". The platelets contained in these pools are counted using a Coulter ZM haematology automatic device: if necessary, a dilution is carried out in order for the platelet concentration in the plasma to be between 200,000 and 400,000 platelets/mm^3. Simultaneously, other samples of these pools serve to prepare the platelet-poor plasma (PPP) by centrifugation at 1500 g for 15 minutes.
# The kinetic study of the platelet aggregation is carried out by adding a collagen solution (1 μg/ml) to a volume of PRP, using a Chrono-log Corporation aggregometer (490-D1 or 560 VS) which uses an optical detection of the appearance of the thrombus.
# The measurements of the aggregation inhibition are carried out after 3 minutes of contact at 37° C. with agitation.
# [2] = system: human platelets; assay: In vitro inhibition of collagen-induced platelet aggregation, human platelets (PRP); format: cell-based; settings: 0.05 h, collagen 5 μg/ml, 3 minutes of contact at 37° C., read-out: IC50 (M) in vitro, Man
# Description: as §1
# Venous blood is taken from a group of ten healthy human subjects of the same age, by puncture into a vein of the fold of the elbow and is collected in a glass tube containing aqueous 0.129 M sodium citrate solution (1 volume of citrate solution per 9 volumes of blood). Each tube is then centrifuged a first time at 20° C. and 100 g for 15 minutes in order to obtain the platelet-rich plasma (PRP); after removing this PRP, the tube is again centrifuged at 2000 g for 15 minutes in order this time to remove the platelet-poor plasma (PPP).
# For each identified sample of PRP, the platelets are counted using a Coulter ZM counter. Each sample is then used to study the variation in inhibition of the platelet aggregation triggered by the addition of a Chromo-par Reagent collagen glucose solution from Coultronics (used at a concentration of 5 μg/ml) as a function of the addition of increasing concentrations of each compound in a range covering the interval 10^-8 M→10^-5 M, (example of concentrations: 10^-8 M, […], 6×10^-6 M, 4×10^-6 M, 2×10^-6 M, 10^-6 M, […], 10^-5 M). Beforehand, for each compound, an aqueous 10^-3 M solution is prepared. A control test intended to check the possible effect of the solvents (reference value) on the platelet aggregation is introduced into each measurement series, and is measured after 3 minutes of contact at 37° C. with agitation.
# From the percentages of inhibition of the platelet aggregation measured for each concentration of each compound, the 50% inhibitory concentration (IC50) is calculated.
# [3] = system: guinea pig platelets; assay: Ex vivo/vitro inhibition of platelet aggregation after administration via the gastric route in guinea pigs; set-up: species or system guinea pig (Dunkin-Hartley); settings: Cavia porcellus, Platelet, 10 mg/kg, fasted guinea pigs
# Description: as §1, with “blood. Evaluation of the anti-platelet-aggregating activity of the compounds is carried out in the same guinea pigs as those mentioned above (Dunkin-Hartley strain). […] The allocation of the treatments to the animals is random. The blood is taken and then treated under the same conditions as those described above for the in vitro studies. The results of the inhibition of the platelet aggregation obtained for each test concentration make it possible to calculate the IC50 concentration of each test product and the kinetics of the inhibitory effect and its duration of action.” for “blood.”
# [4] = 1 h before blood sampling, read-out: % of g.r. inhibition guinea pig ex vivo, d = 10 mg/kg, 1 h
# [5] = 2 h before blood sampling, read-out: % of g.r. inhibition guinea pig ex vivo, d = 10 mg/kg, 2 h
Compound,IC50 [1] [nM],IC50 [2] [M],"inhibition at 10 mg/kg [3, 4] [%]","inhibition at 10 mg/kg [3, 5] [%]"
"O=C(CNC(=O)C(CCC1CCNCC1)CCC1CCNCC1)NC[C@H](NS(=O)(=O)c1ccc2ccccc2c1)C(=O)O [Example 27, (2S)-2-[(2-Naphthylsulphonyl)amino]-3-{[2-({4-(4-piperidyl)-2-[2-(4-piperidyl)ethyl]butanoyl}amino)acetyl]amino}propanoic Acid Dihydrochloride]",19,4.4e-08,–,–
"Cc1n[nH]c(C)c1S(=O)(=O)NC(CNC(=O)CNC(=O)C(CCC1CCNCC1)CCC1CCNCC1)C(=O)O (centres unmarked) [Example 55, 2-{[3,5-Dimethyl-1H-pyrazol-4-yl)sulphonyl]amino}-3-{[2-({4-(4-piperidyl)-2-[2-(4-piperidyl)ethyl]butanoyl}amino)acetyl]amino}propanoic Acid Dihydrochloride]",3500,–,-21,-17
"O=C(CNC(=O)C(CCC1CCNCC1)CCC1CCNCC1)NC[C@H](NS(=O)(=O)c1cccnc1)C(=O)O [Example 56, 2-[(3-Pyridylsulphonyl)amino]3-{[2-({4-(4-piperidyl)-2-[2-(4-piperidyl)ethyl]butanoyl}amino)acetyl]amino}propanoic Acid Trihydrochloride]",230,–,-61,-50
"O=C(CNC(=O)C(CCC1CCNCC1)CCC1CCNCC1)NC[C@H](NS(=O)(=O)c1ccc2c(c1)OCO2)C(=O)O [Example 57, 2-[(1,3-Benzodioxol-5-ylsulphonyl)amino]-3-{[2-({4-(4-piperidyl)-2-[2-(4-piperidyl)ethyl]butanoyl}amino)acetyl]amino}propanoic Acid Dihydrochloride]",830,–,-38,-24
"O=C(CNC(=O)C(CCC1CCNCC1)CCC1CCNCC1)NCC(NS(=O)(=O)c1ccc2c(c1)OCCO2)C(=O)O (centres unmarked) [Example 58, 2-[(2,3-Dihydro-1,4-benzodioxin-6-ylsulphonyl)amino]-3-{[2-({4-(4-piperidyl)-2-[2-(4-piperidyl)ethyl]butanoyl}amino)acetyl]amino}propanoic Acid Dihydrochloride]",590,–,-36,-21
"Cc1cc(S(=O)(=O)NC(CNC(=O)CNC(=O)C(CCC2CCNCC2)CCC2CCNCC2)C(=O)O)c(C)o1 (centres unmarked) [Example 60, 2-{[(2,5-Dimethyl-3-furyl)sulphonyl]amino}-3-{[2-({4-(4-piperidyl)-2-[2-(4-piperidyl)ethyl]butanoyl}amino)acetyl]amino}propanoic Acid Dihydrochloride]",660,–,-53,-32
"O=C(CNC(=O)C(CCC1CCNCC1)CCC1CCNCC1)NCC(NS(=O)(=O)c1ccc(C2CCCCC2)cc1)C(=O)O (centres unmarked) [Example 61, 2-{[(4-Cyclohexylphenyl)sulphonyl]amino)-3-{[2-({4-(4-piperidyl)-2-[2-(4-piperidyl)ethyl]butanoyl}amino)acetyl]amino}propanoic Acid Dihydrochloride]",1400,–,-21,-9
"O=C(CNC(=O)C(CCC1CCNCC1)CCC1CCNCC1)NCC(NS(=O)(=O)c1ccc(F)c2ccccc12)C(=O)O (centres unmarked) [Example 62, 2-{[(4-Fluoro-1-naphthyl)sulphonyl]amino}-3-{[2-({4-(4-piperidyl)-2-[2-(4-piperidyl)ethyl]butanoyl}amino)acetyl]amino}propanoic Acid Dihydrochloride]",95,–,-69,-33
"O=C(CNC(=O)C(CCC1CCNCC1)CCC1CCNCC1)NCC(NS(=O)(=O)c1ccc2c(c1)CCO2)C(=O)O (centres unmarked) [Example 64, 2-[(2,3-Dihydro-1-benzofuran-5-ylsulphonyl)amino]-3-{[2-({4-(4-piperidyl)-2-[2-(4-piperidyl)ethyl]butanoyl}amino)acetyl]amino}propanoic Acid Dihydrochloride]",370,–,-65,-5
"O=C(CNC(=O)C(CCC1CCNCC1)CCC1CCNCC1)NC[C@H](NS(=O)(=O)c1ccc(-c2cccs2)cc1)C(=O)O [Example 65, 2-({[4-(2-Thienyl)phenyl]sulphonyl}amino) 3-{[2-({4-(4-piperidyl)-2-[2-(4-piperidyl)ethyl]butanoyl}amino)acetyl]amino}propanoic Acid Dihydrochloride]",200,–,-65,-12
"O=C(CNC(=O)C(CCC1CCNCC1)CCC1CCNCC1)NCC(NS(=O)(=O)c1ccccc1-c1cccs1)C(=O)O (centres unmarked) [Example 66, 2-({[2-(2-Thienyl)phenyl]sulphonyl}amino) 3-{[2-({4-(4-piperidyl)-2-[2-(4-piperidyl)ethyl]butanoyl}amino)acetyl]amino}propanoic Acid Dihydrochloride]",350,–,-18,0
"O=C(CNC(=O)C(CCC1CCNCC1)CCC1CCNCC1)NCC(NS(=O)(=O)c1cc2ccccc2o1)C(=O)O (centres unmarked) [Example 68, 2-[(1-Benzofuran-2-ylsulphonyl)amino]-3-{[2-({4-(4-piperidyl)-2-[2-(4-piperidyl)ethyl]butanoyl}amino)acetyl]amino}propanoic Acid Dihydrochloride]",180,–,-72,-71
"O=C(CNC(=O)C(CCC1CCNCC1)CCC1CCNCC1)NCC(NS(=O)(=O)Cc1ccc2ccccc2c1)C(=O)O (centres unmarked) [Example 69, 2-{[(2-Naphthylmethyl)sulphonyl]amino}-3-{[2-({4-(4-piperidyl)-2-[2-(4-piperidyl)ethyl]butanoyl}amino)acetyl]amino}propanoic Acid Dihydrochloride]",1900,–,-69,-3
"O=C(CNC(=O)C(CCC1CCNCC1)CCC1CCNCC1)NCC(NS(=O)(=O)c1ccc2c(c1)CCC2)C(=O)O (centres unmarked) [Example 70, 2-[(2,3-Dihydro-1H-inden-5-ylsulphonyl)amino]-3-{[2-({4-(4-piperidyl)-2-[2-(4-piperidyl)ethyl]butanoyl}amino)acetyl]amino}propanoic Acid Dihydrochloride]",400,–,-32,-34
"O=C(CNC(=O)C(CCC1CCNCC1)CCC1CCNCC1)NCC(NS(=O)(=O)c1ccc2c(c1)CCCC2)C(=O)O (centres unmarked) [Example 72, 2-[(5,6,7,8-Tetrahydro-2-naphthalenylsulphonyl)amino]3-{[2-({4-(4-piperidyl)-2-[2-(4-piperidyl)ethyl]butanoyl}amino)acetyl]amino}propanoic Acid Dihydrochloride]",340,–,-60,-67
